Assay results reported in ChEMBL document CHEMBL2074072, “Transport of glutathione, glucuronate, and sulfate conjugates by the MRP gene-encoded conjugate export pump” (Cancer Res, 1996).

Molecular target: Multidrug resistance-associated protein 1 (Homo sapiens, UniProt P33527)
Test: TP_TRANSPORTER: uptake in membrane vesicle from MRP1-expressing HeLa cells
Format: functional, cell membranes

Sequence of Multidrug resistance-associated protein 1 (P33527 whole entry): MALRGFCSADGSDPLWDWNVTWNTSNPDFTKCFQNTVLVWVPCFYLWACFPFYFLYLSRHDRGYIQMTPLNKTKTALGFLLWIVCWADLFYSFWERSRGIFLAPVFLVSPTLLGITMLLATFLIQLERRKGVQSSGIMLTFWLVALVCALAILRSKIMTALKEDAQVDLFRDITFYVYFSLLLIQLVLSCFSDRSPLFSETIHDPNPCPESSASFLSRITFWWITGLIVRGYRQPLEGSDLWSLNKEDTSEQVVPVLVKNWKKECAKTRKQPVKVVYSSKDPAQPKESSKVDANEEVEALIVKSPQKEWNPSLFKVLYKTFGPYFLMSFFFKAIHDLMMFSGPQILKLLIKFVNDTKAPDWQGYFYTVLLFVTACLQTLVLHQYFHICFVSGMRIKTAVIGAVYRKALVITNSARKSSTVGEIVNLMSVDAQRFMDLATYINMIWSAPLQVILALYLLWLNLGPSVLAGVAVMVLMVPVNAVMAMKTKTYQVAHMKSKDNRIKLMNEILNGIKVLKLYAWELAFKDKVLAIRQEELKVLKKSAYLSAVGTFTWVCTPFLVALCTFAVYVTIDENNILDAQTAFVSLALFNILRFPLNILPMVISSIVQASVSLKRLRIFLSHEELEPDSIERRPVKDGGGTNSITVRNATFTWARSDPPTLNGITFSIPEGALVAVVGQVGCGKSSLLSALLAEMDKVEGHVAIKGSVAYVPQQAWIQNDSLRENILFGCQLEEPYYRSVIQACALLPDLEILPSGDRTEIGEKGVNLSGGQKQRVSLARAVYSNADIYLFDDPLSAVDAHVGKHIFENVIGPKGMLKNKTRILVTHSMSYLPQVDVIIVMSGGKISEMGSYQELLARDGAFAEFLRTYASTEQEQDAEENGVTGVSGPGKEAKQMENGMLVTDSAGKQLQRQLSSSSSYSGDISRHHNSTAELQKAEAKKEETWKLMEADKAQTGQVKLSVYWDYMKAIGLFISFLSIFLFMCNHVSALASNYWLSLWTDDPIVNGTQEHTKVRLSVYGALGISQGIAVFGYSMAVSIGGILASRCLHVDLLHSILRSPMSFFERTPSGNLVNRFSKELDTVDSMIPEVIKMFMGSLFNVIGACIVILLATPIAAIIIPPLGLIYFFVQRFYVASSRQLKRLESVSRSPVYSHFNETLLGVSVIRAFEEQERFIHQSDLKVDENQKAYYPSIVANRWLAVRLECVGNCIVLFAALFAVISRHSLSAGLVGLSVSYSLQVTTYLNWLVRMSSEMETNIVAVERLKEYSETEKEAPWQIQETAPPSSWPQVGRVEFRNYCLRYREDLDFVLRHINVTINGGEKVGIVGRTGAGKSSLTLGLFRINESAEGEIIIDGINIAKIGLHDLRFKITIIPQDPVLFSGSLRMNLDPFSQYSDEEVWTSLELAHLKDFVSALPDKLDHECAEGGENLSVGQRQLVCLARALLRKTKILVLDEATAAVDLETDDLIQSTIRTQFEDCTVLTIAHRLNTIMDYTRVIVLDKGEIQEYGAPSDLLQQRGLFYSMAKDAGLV

| Activity | Structure (SMILES) |
| --- | --- |
| substrate [+] | C[C@H](CCC(=O)O)[C@H]1CC[C@H]2[C@@H]3C[C@H](O[C@@H]4O[C@H](C(=O)O)[C@@H](O)[C@H](O)[C@H]4O)[C@@H]4C[C@H](O)CC[C@]4(C)[C@H]3CC[C@]12C [6alpha-Glucuronosylhyodeoxycholate] |
| substrate [+] | COc1cc([C@@H]2c3cc4c(cc3[C@@H](O[C@@H]3O[C@@H]5CO[C@@H](C)O[C@H]5[C@H](O)[C@H]3O)[C@H]3COC(=O)[C@H]23)OCO4)cc(OC)c1O[C@@H]1O[C@H](C(=O)O)[C@@H](O)[C@H](O)[C@H]1O [ETOPOSIDE GLUCURONIDE] |
| substrate [+] | CCCCC/C=C\C\C=C/C=C/C=C/[C@@H](SC[C@H](N)C(=O)O)[C@@H](O)CCCC(=O)O [LEUKOTRIEN E4] |

Continued, molecule first:

| Structure (SMILES) | Activity |
| --- | --- |
| CCCCC/C=C\C\C=C/C=C/C=C/[C@@H](SC[C@H](NC(C)=O)C(=O)O)[C@@H](O)CCCC(=O)O | substrate [+] |
| CCCCC/C=C\C\C=C/C=C/C=C/[C@@H](SC[C@H](N)C(=O)NCC(=O)O)[C@@H](O)CCCC(=O)O [LEUKOTRIENE D4] | substrate [+] |
